target: T1, human HSL (Homo sapiens, UniProt Q05469); test: Human Hormone-Sensitive Lipase (HSL) enzyme inhibition assay (colorimetric, DMPT substrate); assay type: biochemical; conditions: human full length HSL-His6, 2,3-dimercapto-1-propanol tributyrate substrate, 37° C. 20 minutes; read-out: HSL hum IC50
T1 construct: fused on or other part: C-terminal His6 tag
T1 sequence (Q05469 1-1076): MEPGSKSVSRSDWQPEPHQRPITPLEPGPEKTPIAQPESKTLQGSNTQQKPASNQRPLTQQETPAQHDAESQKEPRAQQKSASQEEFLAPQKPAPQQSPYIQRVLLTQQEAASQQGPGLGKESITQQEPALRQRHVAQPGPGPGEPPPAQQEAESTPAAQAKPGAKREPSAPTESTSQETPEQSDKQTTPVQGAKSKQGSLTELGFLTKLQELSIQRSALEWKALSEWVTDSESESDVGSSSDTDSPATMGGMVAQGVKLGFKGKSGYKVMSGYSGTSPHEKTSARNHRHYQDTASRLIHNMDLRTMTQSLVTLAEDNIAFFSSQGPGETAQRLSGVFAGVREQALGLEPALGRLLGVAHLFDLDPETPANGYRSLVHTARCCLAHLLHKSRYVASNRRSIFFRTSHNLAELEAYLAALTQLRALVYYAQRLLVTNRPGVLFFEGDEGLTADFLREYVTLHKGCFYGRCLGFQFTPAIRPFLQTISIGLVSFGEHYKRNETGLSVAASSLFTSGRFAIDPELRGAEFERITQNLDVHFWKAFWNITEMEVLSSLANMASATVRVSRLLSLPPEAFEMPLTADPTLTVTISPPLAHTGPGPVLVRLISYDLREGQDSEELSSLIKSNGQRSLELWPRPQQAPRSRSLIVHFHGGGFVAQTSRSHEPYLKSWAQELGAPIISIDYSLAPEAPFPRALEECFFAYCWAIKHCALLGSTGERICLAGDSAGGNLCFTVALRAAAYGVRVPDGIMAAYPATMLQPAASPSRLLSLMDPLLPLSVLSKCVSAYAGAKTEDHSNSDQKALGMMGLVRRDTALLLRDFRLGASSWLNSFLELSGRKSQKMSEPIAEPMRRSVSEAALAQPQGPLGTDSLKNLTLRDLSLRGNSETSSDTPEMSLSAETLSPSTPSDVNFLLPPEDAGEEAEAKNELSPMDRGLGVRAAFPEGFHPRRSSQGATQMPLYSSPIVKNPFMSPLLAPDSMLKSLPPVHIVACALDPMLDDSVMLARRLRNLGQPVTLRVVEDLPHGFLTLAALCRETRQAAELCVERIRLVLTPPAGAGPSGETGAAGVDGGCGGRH
Description: Production of Human full length Hormone Sensitive Lipase-His^6:
1) Cloning: cDNA was prepared from commercial human brain polyA+ RNA and used as a template in overlapping PCR to generate a full length human HSL ORF with a 3′-His6 tag. This full length insert was cloned into the pFast-BAC vector and the DNA-sequence of several single clones was verified. DNA from a correct full length clone with the 3′His6 tag was used to transform the E. coli strain DH10BAC. Resulting bacmid DNA was used to generate a titered baculovirus stock for protein generation. The sequence of the encoded HSL conforms to Swissprot entry Q05469, with the additional C-terminal His6-tag.
2) Protein purification: Culture: 5.5 L, High 5 cells expressing human full length HSL-His^6, 48 hr., containing 25 μM E-64. Cell count: […], 90% viable.
Cells were thawed. On ice, cells were suspended in Base Buffer containing 10% glycerol, 25 mM Tris-Cl, 300 mM NaCl, 10 mM imidazole, 10 mM 2-mercaptoethanol, 2 μg pepstatin/ml, 2 μg leupeptin/ml, 2 μg antipain/ml, pH 8.0 at 4° C. in a final volume of 475 ml with 3.75×10^7 cells/ml. […] was done at 3×30 sec., Lubrol PX was added to 0.2% final concentration followed by stirring for 15 min. at 4° C. and centrifugation at 25 k×g, 60 min., 4° C. Soluble proteins were mixed with 60 ml of pre-washed and equilibrated Ni-NTA Agarose (Qiagen 30210) followed by tumbling end-over-end, 45 min., 4° C., centrifugation 1000 rpm 5 min and letting resin settle 5 min. Supernatant was removed, the resin washed in the centrifuge vessel using 5 volumes of Base Buffer containing 0.2% Lubrol PX. Centrifugation was done again, then the supernatant discarded. The resin was poured onto a 0.8 μm membrane in a disposable filter unit (Nalge 450-0080), and washed with 5 volumes of Base Buffer containing 0.2% Lubrol PX. It was then washed with 30 volumes of Base Buffer containing 60 mM imidazole pH 7.5 at 4° C. The protein was eluated with 5 volumes of 25 mM Tris-Cl, 300 mM NaCl, 200 mM imidazole, 10 mM 2-mercaptoethanol, pH 7.5 at 4° C. by tumbling resin with buffer end-over-end, 30 min., 4° C. The resin was captured on a 0.2 μm membrane disposable filter unit (Millipore SCGP U02 RE) and the eluate collected in the reservoir. The eluate was concentrated using a 30 k MWCO centrifugal filter device (Sartorius Vivascience Vivacell 100, VC1022), to 20 ml. It was then dialyzed overnight at 4° C., two times against 2 L of 10% glycerol, 25 mM Tris-Cl, 300 mM NaCl, 0.2 mM EDTA, 0.2 mM DTT, pH 7.5 at 4° C. The protein was filtered using a 0.22 μm disposable filter unit (Millipore SCGP00525). The protein concentration was calculated from absorbance at 280 nm, using 280=0.67 cm-1 mg-1. Yield was 235 mg, total. The protein was stored at −80° C.
Human Hormone-Sensitive Lipase (HSL) enzyme inhibition assay:
HSL enzyme activity was measured by a colorimetric assay using 2,3-dimercapto-1-propanol tributyrate (Aldrich, St. Louis, Mo.) as a substrate. Typically, 1.5 mM 2,3-dimercapto-1-propanol tributyrate (DMPT) in 100 mM MOPS, pH 7.2, 0.2 mg/ml fatty acid-free BSA was prepared by sonication at 4° C. to homogenous suspension. Test compounds (2 mM stock in DMSO) were diluted 3 fold in series in DMSO. Compound solutions were diluted 24 fold in 1.5 mM DMPT containing solution and 18 ul per well was added to 384-well microplates (Corning Costar). Twelve microliters per well of human HSL (15 ug/ml) was added and the reaction mixture was incubated at 37° C. for 20 minutes. Six microliters of 12 mM dithio-bis-(2-nitrobenzoic acid) (DTNB) in DMSO plus 1.2% SDS and 0.6% Triton X-100 were added and the mixture was incubated at room temperature for 15 minutes. Product production was monitored by reading absorbance at 405 nm on an Envision Reader (PerkinElmer Life and Analytical Sciences, Shelton, Conn.).

Row | Compound | IC50 [nM]
1 | CCCN1CCC2(CCN(c3ccc(OC(F)(F)F)cc3)C2=O)CC1=O (stereo not drawn) [Example 2, 8-Propyl-2-(4-trifluoromethoxy-phenyl)-2,8-diaza-spiro[4.5]decane-1,7-dione] | 250
2 | CCN1CCC2(CCN(c3ccc(OC(F)(F)F)cc3)C2=O)CC1=O (stereo not drawn) [Example 7, 8-Ethyl-2-(4-trifluoromethoxy-phenyl)-2,8-diaza-spiro[4.5]decane-1,7-dione] | 810
3 | CC(C)(C)CC(=O)N1CCC2(CCN(c3ccc(CC(F)(F)F)cc3)C2=O)CC1=O (stereo not drawn) [Example 11, 8-(3,3-dimethylbutanoyl)-2-(4-(2,2,2-trifluoroethyl)phenyl)-2,8-diazaspiro[4.5]decane-1,7-dione] | 60
4 | O=C1CC2(CCN(c3ccc(OC(F)(F)F)cc3)C2=O)CCN1S(=O)(=O)c1ccccc1Cl (stereo not drawn) [Example 3, 8-(2-Chloro-benzenesulfonyl)-2-(4-trifluoromethoxy-phenyl)-2,8-diaza-spiro[4.5]decane-1,7-dione] | 30
5 | O=C1CC2(CCN1Cc1ccccc1)CCN(c1ccc(OC(F)(F)F)cc1)C2=O (stereo not drawn) [Example 1, 8-Benzyl-2-(4-trifluoromethoxy-phenyl)-2,8-diaza-spiro[4.5]decane-1,7-dione] | 270

Second part, the compound after the results:

Row | IC50 [nM] | Compound
6 | 140 | CC(C)(C)CC(=O)N1CCC2(CCN(c3ccc(OCC(F)(F)F)cc3)C2=O)CC1=O (stereo not drawn) [Example 12, 8-(3,3-dimethylbutanoyl)-2-(4-(2,2,2-trifluoroethoxy)phenyl)-2,8-diazaspiro[4.5]decane-1,7-dione]
7 | 160 | CC(C)CS(=O)(=O)N1CCC2(CCN(c3ccc(OC(F)(F)F)cc3)C2=O)CC1=O (stereo not drawn) [Example 4, 8-(2-Methyl-propane-1-sulfonyl)-2-(4-trifluoromethoxy-phenyl)-2,8-diaza-spiro[4.5]decane-1,7-dione]
8 | 100 | CCCCN1CCC2(CCN(c3ccc(OC(F)(F)F)cc3)C2=O)CC1=O (stereo not drawn) [Example 8, 8-Butyl-2-(4-trifluoromethoxy-phenyl)-2,8-diaza-spiro[4.5]decane-1,7-dione]
9 | 30 | O=C1CC2(CCN(c3ccc(CC(F)(F)F)cc3)C2=O)CCN1S(=O)(=O)c1ccccc1Cl (stereo not drawn) [Example 10, 8-(2-chlorophenylsulfonyl)-2-(4-(2,2,2-trifluoroethyl)phenyl)-2,8-diazaspiro[4.5]decane-1,7-dione]
10 | 110 | CC(C)(C)CC(=O)N1CCC2(CCN(c3ccc(OC(F)(F)F)cc3)C2=O)CC1=O (stereo not drawn) [Example 5, 8-(3,3-Dimethyl-butyryl)-2-(4-trifluoromethoxy-phenyl)-2,8-diaza-spiro[4.5]decane-1,7-dione]
11 | 80 | CC(C)(C)CN1CCC2(CCN(c3ccc(OC(F)(F)F)cc3)C2=O)CC1=O (stereo not drawn) [Example 9, 8-(2,2-Dimethyl-propyl)-2-(4-trifluoromethoxy-phenyl)-2,8-diaza-spiro[4.5]decane-1,7-dione]
12 | 6020 | CN1CCC2(CCN(c3ccc(OC(F)(F)F)cc3)C2=O)CC1=O (stereo not drawn) [Example 6, 8-Methyl-2-(4-trifluoromethoxy-phenyl)-2,8-diaza-spiro[4.5]decane-1,7-dione]

Reference: patent US8097634B2, “Azacyclic derivatives” (Hoffmann-La Roche Inc., priority 2010, dated 2012)
